Where no end group is shown, it is not given here.
How the values were obtained:
[1] = test system: NEM receptors on prostate cancer cells; assay: Binding of NEM to its receptors on prostate cancer cells
[2] = test system: PC-3M cells; assay: Matrigel in vitro invasion of PC-3M cells; format: cell-based
Method: FIG. 2 illustrates the effect of NEM on in vitro invasion of PC-3M cells. The experiment used 3 well Matrigel invasion chambers (Becton Dickinson, Bedford, Mass.). Approximately 200,000 PC-3M cells were seeded in the upper chamber in RPMI 1640 medium containing 0.1% BSA (Sigma, St. Louis), 4 mM L-glutamine, 100 IU/ml penicillin G and 100 ug/ml streptomycin. The lower chamber medium contained chemoattractant medium consisting of 80% complete medium (RPMI 1640, 12% horse serum, 4% […] fetal calf serum, 4 mM L-glutamine, 100 IU/ml penicillin G and […]). Different concentrations of NEM or conditioned media from NEM-PC3-M cells that express NEM (dilutions ranging from 1 to 5) were added to the upper chamber. The experiments were carried out for 72 hours. At the end of the incubation period the Matrigel was scraped off using cotton swabs and the top insert was fixed and stained using Diff Quick staining (Dade Diagnostics, Aguada, PR). The relative invasive potential was determined by normalizing for cell growth. This was done by plating 100,000 cells in six well dishes in chemoattractant medium and determining the relative growth of cells after 72 hours. The number of cells per 100×field were expressed as mean +/−SEM.
FIG. 4 illustrates the effect of the anti-NEM antiserum on invasion of PC-3M cells. […]

[3] = test system: OVCA-5; assay: Growth of non-prostate cancer cells (bone-derived cell lines); format: cell-based
[4] = test system: PC-3M cells; assay: 3H-thymidine incorporation (DNA synthesis) in PC-3M cells; format: cell-based; conditions: 24 hours, FIG. 1
Method: FIG. 1 illustrates the effect of exogenously added prostatic NEM on DNA synthesis of an aggressive prostate cancer (PC-3M) cell line. To obtain the results shown in FIG. 1, PC-3M cells were seeded at a density of 10,000 cells per well and incubated overnight in the complete medium. The cells were then washed with and incubated in serum-free medium containing the agents and 0.5 μCi of 3H-thymidine for 24 hours. At the end of incubation, the cells were washed three times with PBS-1 μM thymidine and the incorporated radioactivity was determined in TCA-precipitable fraction.
If NEM-induced DNA synthesis may influence proliferative activity of a prostate tumor and other cancer cells, then its immunoneutralization should reduce the growth. This hypothesis was tested by studying the rate of 3H-thymidine incorporation in PC-3M prostate cancer cells. The cells were treated either with non-immune antiserum or anti-NEM antiserum at a final dilution of 1:50.

[5] = test system: prostate cancer cell lines; conditions: background statement; cited from earlier work
[6] = molecular target: NEM receptor on prostate cancer cells; assay: cell-based or functional assay

NEM: novel neuroendocrine growth factor or marker isolated from prostate cancer cells; amino acid SEQ ID NO: 6 expressed in PC-3M cells (RTCVLGYLHIVPEFIESQLLGLLSPVSL; listed as Homo sapiens)
receptor binding affinity [1]: high affinity (low nM) | invasiveness of PC-3M cells ([2]; all concentrations of NEM significant vs 0, P<0.05, FIG. 2): in a dose-dependent fashion significantly increases the invasiveness | increase in invasiveness ([2]; from 0M to 10^-6M NEM, 72 hours, FIG. 2): 70% | growth of non-prostate cancer cells [3]: stimulates the growth | concentration at which the increase in DNA synthesis was significant ([4]; PC-3M cells): ≥ 10 nM | 3H-thymidine incorporation (DNA synthesis) ([4]; exogenously added NEM, serum-free medium): stimulated 3H-thymidine incorporation in a dose-dependent fashion

Pindobind
growth of prostate cancer cell lines [5]: inhibit the growth

RTCVLGYLHIVPEFIESQLLGLLSPVSL (ligand, also: 125I-labelled form used in RIA) [neuroendocrine growth factor or marker (NEM)]
3H-thymidine incorporation (DNA synthesis) in PC-3M cells [6]: > 10 nM | in vitro Matrigel invasion of PC-3M cells [6]: 70%

Reference: patent US7026454B1, “Neuroendocrine marker of prostate cancer and method for producing same” (University of Kansas Medical Center, priority 1998, dated 2006)
